Assay results reported in publication PMC10649961, “Novel Mitochondria-Targeted Amphiphilic Aminophosphonium Salts and Lipids Nanoparticles: Synthesis, Antitumor Activity and Toxicity” (Nanomaterials, 2023).
Where two headings read alike, the source gives them in different places.

Assays:
[1] = system: T98G; experiment: cells; details: Homo sapiens, 48 h, read-out: Cytotoxic Effects (IC50)
[2] = system: Pseudomonas aeruginosa ATCC 9027; experiment: Antimicrobial activity, serial microdilutions, Pa; format: cell-based; set-up: key to Minimum Inhibitory Concentration (MIC) / Minimum bactericidal and fungicidal concentrations (MBC, MFC): – means non-active; details: for MIC: ATCC9027, read-out: Minimum Inhibitory Concentration (MIC)
Summary of the method: (§1)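 Yeast was cultured in Sabouraud broth and bacteria in Mueller-Hinton broth while compounds were tested by serial microdilution. The methicillin-resistant isolate (MRSA-1) originated from chronic tonsillitis; replicates n=3.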

[3] = system: HuTu 80; experiment: cells; details: Homo sapiens, HuTu80, 48 h, read-out: Cytotoxic Effects (IC50)
[4] = system: MRSA-1; experiment: Antimicrobial activity, serial microdilutions, MRSA-1; format: cell-based, S. aureus; details: Staphylococcus aureus; for MIC: read-out: Minimum Inhibitory Concentration (MIC); for MBC: read-out: Minimum bactericidal and fungicidal concentrations (MBC, MFC)
Summary of the method: as §1

[5] = system: Hep G2
[6] = system: HuTu 80
[7] = system: SK-OV-3
[8] = system: M-HeLa
[9] = system: T98G
[10] = system: PANC-1
[11] = system: A549; experiment: cells; details: Homo sapiens, A549, 48 h, read-out: Cytotoxic Effects (IC50)
[12] = system: MCF-7; experiment: cells; details: Homo sapiens, MCF7, 48 h, read-out: Cytotoxic Effects (IC50)
[13] = system: MRSA-2; experiment: Antimicrobial activity, serial microdilutions, MRSA-2; format: cell-based, S. aureus; details: Staphylococcus aureus; for MIC: read-out: Minimum Inhibitory Concentration (MIC); for MBC: read-out: Minimum bactericidal and fungicidal concentrations (MBC, MFC)
Summary of the method: (§2)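 Compounds were serially diluted in broth: Mueller-Hinton for the bacterial strains, Sabouraud for the yeast. Each determination was done in triplicate.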

[14] = system: SK-OV-3; experiment: cells; details: Homo sapiens, SK-OV-3, 48 h, read-out: Cytotoxic Effects (IC50)
[15] = system: Enterococcus faecalis ATCC 29212; experiment: Antimicrobial activity, serial microdilutions, Ef; format: cell-based; set-up: key to Minimum Inhibitory Concentration (MIC) / Minimum bactericidal and fungicidal concentrations (MBC, MFC): – means non-active; details: for MIC: ATCC29212, read-out: Minimum Inhibitory Concentration (MIC)
Summary of the method: as §2

[16] = system: MCF-7
[17] = system: Candida albicans ATCC 10231; experiment: Antimicrobial activity, serial microdilutions, Ca; format: cell-based; set-up: key to Minimum Inhibitory Concentration (MIC) / Minimum bactericidal and fungicidal concentrations (MBC, MFC): – means non-active; details: for Minimum Inhibitory Concentration (MIC) / Minimum bactericidal and fungicidal concentrations (MBC, MFC): Ca
Summary of the method: as §1

[18] = system: Bacillus cereus ATCC 10702 NCTC 8035; experiment: Antimicrobial activity, serial microdilutions, Bc; format: cell-based; set-up: key to Minimum bactericidal and fungicidal concentrations (MBC, MFC): – means non-active; details: for MIC / Minimum bactericidal and fungicidal concentrations (MBC, MFC): Bc; for MIC: read-out: Minimum Inhibitory Concentration (MIC)
Summary of the method: as §1

[19] = system: DU-145
[20] = system: PANC-1; experiment: cells; details: Homo sapiens, PANC-1, 48 h, read-out: Cytotoxic Effects (IC50)
[21] = system: M-HeLa; experiment: cells; details: Homo sapiens, 48 h, read-out: Cytotoxic Effects (IC50)
[22] = system: Staphylococcus aureus ATCC 6538 P FDA 209P; experiment: Antimicrobial activity, serial microdilutions, Sa; format: cell-based; details: Staphylococcus aureus; for MIC: read-out: Minimum Inhibitory Concentration (MIC); for MBC: read-out: Minimum bactericidal and fungicidal concentrations (MBC, MFC)
Summary of the method: as §2

[23] = system: PC3
[24] = system: Escherichia coli ATCC 25922; experiment: Antimicrobial activity, serial microdilutions, Ec; format: cell-based; set-up: key to Minimum Inhibitory Concentration (MIC) / Minimum bactericidal and fungicidal concentrations (MBC, MFC): – means non-active; details: for MBC: ATCC25922, read-out: Minimum bactericidal and fungicidal concentrations (MBC, MFC)
Summary of the method: as §1

[25] = system: DU-145; experiment: cells; details: Homo sapiens, DU-145, 48 h, read-out: Cytotoxic Effects (IC50), DU-145, MTT assay, 48 h
[26] = system: Hep G2; experiment: cells; details: Homo sapiens, HepG2, 48 h, read-out: Cytotoxic Effects (IC50)
[27] = system: A549
[28] = calculated relative to the cell line Chang liver (b)
[29] = reference normal cell line not marked at the place (ns cells)
[30] = calculated relative to the cell line WI38 (a)

Compound	IC50 [1]	Minimum bactericidal and fungicidal concentrations (MBC, MFC) [2]	MIC ([2]; Pseudomonas aeruginosa)	IC50 [3]	MIC [4]	MBC [4]	selectivity index (SI) [5, 28]	IC50 [11]	IC50 [12]	MIC [13]	MBC [13]	IC50 [14]	MIC ([15]; Enterococcus faecalis)	MIC ([18]; Bacillus cereus)	IC50 [20]	IC50 [21]	MIC [22]	MBC [22]	IC50 [25]	IC50 [26]	other results
CCCCCCCC[P+](c1ccccc1)(N(CC)CC)N(CC)CC [5b, Bis(diethylamino)(octyl)(phenyl)phosphonium iodide]	4300 ± 300 nM	–	500 ± 46 µM	4000 ± 300 nM	15.6 ± 1.2 µM	500 ± 48 µM	1.4	20000 ± 1600 nM	2600 ± 200 nM	15.6 ± 1.2 µM	250 ± 20 µM	25600 ± 1800 nM	125 ± 11 µM	7.8 ± 0.6 µM	1200 ± 100 nM	1800 ± 100 nM	7.8 ± 0.6 µM	250 ± 20 µM	2000 ± 100 nM	2900 ± 300 nM	selectivity index (SI) [6, 28]: 1.0; selectivity index (SI) [7, 29]: ns (ns—no selectivity); selectivity index (SI) [8, 28]: 2.2; selectivity index (SI) [9, 28]: 1.0; selectivity index (SI) [10, 28]: 3.3; Minimum bactericidal and fungicidal concentrations (MBC, MFC) [15]: –; selectivity index (SI) [16, 28]: 1.5; Minimum Inhibitory Concentration (MIC) [17]: –; Minimum bactericidal and fungicidal concentrations (MBC, MFC) [17]: –; Minimum bactericidal and fungicidal concentrations (MBC, MFC) [18]: –; selectivity index (SI) [19, 28]: 2.0; selectivity index (SI) [23, 29]: ns (ns—no selectivity); Minimum Inhibitory Concentration (MIC) [24]: –; MBC ([24]; Escherichia coli): 500 ± 49 µM; selectivity index (SI) [27, 29]: ns (ns—no selectivity)
CCCCCCCC[P+](c1ccccc1)(c1ccccc1)N(CC)CC [6b, (Diethylamino)(octyl)diphenylphosphonium iodide]	3400 ± 200 nM	–		200 ± 10 nM	7.8 ± 0.6 µM	31.3 ± 2.6 µM		13000 ± 1100 nM	9500 ± 800 nM	7.8 ± 0.6 µM	31.3 ± 2.5 µM	17600 ± 1400 nM	62.5 ± 5.5 µM	3.9 ± 0.4 µM	1300 ± 100 nM	950 ± 80 nM	7.8 ± 0.6 µM	125 ± 11 µM	800 ± 70 nM	11600 ± 900 nM	Minimum Inhibitory Concentration (MIC) [2]: –; selectivity index (SI) [5, 30]: 1.4; selectivity index (SI) [6, 30]: 81; selectivity index (SI) [7, 29]: ns (ns—no selectivity); selectivity index (SI) [8, 30]: 17; selectivity index (SI) [9, 30]: 5.0; selectivity index (SI) [10, 30]: 12; Minimum bactericidal and fungicidal concentrations (MBC, MFC) [15]: –; selectivity index (SI) [16, 30]: 1.7; Minimum Inhibitory Concentration (MIC) [17]: –; Minimum bactericidal and fungicidal concentrations (MBC, MFC) [17]: –; Minimum bactericidal and fungicidal concentrations (MBC, MFC) [18]: –; selectivity index (SI) [19, 30]: 20; selectivity index (SI) [23, 30]: 19; Minimum Inhibitory Concentration (MIC) [24]: –; Minimum bactericidal and fungicidal concentrations (MBC, MFC) [24]: –; selectivity index (SI) [27, 30]: 1.2
CCCCCCCCCC[P+](N(CC)CC)(N(CC)CC)N(CC)CC [4d, Decyltris(diethylamino)phosphonium iodide]	1800 ± 200 nM		500 ± 47 µM	2800 ± 200 nM	0.9 ± 0.07 µM	62.5 ± 5.4 µM	5.2	18400 ± 1300 nM	2100 ± 200 nM	1.9 ± 0.1 µM	250 ± 18 µM	10000 ± 900 nM	15.6 ± 1.3 µM	0.9 ± 0.07 µM	1600 ± 100 nM	1700 ± 100 nM	1.9 ± 0.1 µM	31.3 ± 2.5 µM	1200 ± 100 nM	2300 ± 100 nM	MBC ([2]; Pseudomonas aeruginosa, ATCC9027, read-out: Minimum bactericidal and fungicidal concentrations (MBC, MFC)): 500 ± 48 µM; selectivity index (SI) [6, 28]: 4.3; selectivity index (SI) [7, 28]: 1.2; selectivity index (SI) [8, 28]: 7.1; selectivity index (SI) [9, 28]: 6.7; selectivity index (SI) [10, 28]: 7.5; MBC ([15]; Enterococcus faecalis, ATCC29212, read-out: Minimum bactericidal and fungicidal concentrations (MBC, MFC)): > 500 µM; selectivity index (SI) [16, 28]: 5.7; MIC ([17]; Candida albicans, ATCC10231, read-out: Minimum Inhibitory Concentration (MIC)): 125 ± 11 µM; MBC ([17]; Candida albicans, ATCC10231, read-out: Minimum bactericidal and fungicidal concentrations (MBC, MFC)): 250 ± 18 µM; MBC ([18]; Bacillus cereus, read-out: Minimum bactericidal and fungicidal concentrations (MBC, MFC)): 250 ± 22 µM; selectivity index (SI) [19, 28]: 10; selectivity index (SI) [23, 28]: 1.6; MIC ([24]; Escherichia coli, ATCC25922, read-out: Minimum Inhibitory Concentration (MIC)): 125 ± 9 µM; MBC ([24]; Escherichia coli): 250 ± 19 µM; selectivity index (SI) [27, 29]: ns (ns—no selectivity)
